Values after ≈ are worked out from the molar mass of the structure shown. Like-named read-outs stand apart in the source and are kept apart here.

The values below come from patent publication US11208387B2, “Macrocyclic broad spectrum antibiotics” (Genentech, Inc., priority 2019, dated 2021).

Test in all cases: Serum MIC, broth micro-dilution
Type in all cases: cell-based

Test [1] concerns Acinetobacter baumannii ATCC 17978. The method, boiled down: (§1)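 Serum-shifted MIC: medium is a 1:1 v/v mix of cation-adjusted MH II broth and mouse serum. 10-point 2-fold dilution series, top 64, 4, 0.5 or 0.13 μg/mL depending on protocol. Inoculum OD600 0.0005 final; 35° C, 22 h.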
For test [2], the system named is Pseudomonas aeruginosa PA01. Conditions: for MIC: Pseudomonas aeruginosa, PA01, read-out: P. aeruginosa 01 Serum MIC. The method, boiled down:
as §1

For test [3], the system named is Klebsiella pneumoniae ATCC 700603. The procedure, abridged:
as §1

The subject of test [4] is Escherichia coli strain ATCC 25922. Conditions: read-out: E. coli 25922 Serum MIC. The procedure, abridged:
as §1

Setting [5] is: Acinetobacter baumannii, ATCC17978, 50% v/v mouse serum in Mueller Hinton II cation adjusted Broth, 35° C., 22 hours, Table 4, read-out: A. baumanii 17978 Serum MIC.
Where [6] appears, read: Acinetobacter baumannii, ATCC17978, 50% v/v mouse serum in Mueller Hinton II cation adjusted Broth, 35° C., 22 hours, Table 5, read-out: Acinetobacter baumanii 17978 Serum MIC.
Where [7] appears, read: 50% v/v mouse serum in Mueller Hinton II cation adjusted Broth, 35° C., 22 hours, Table 4.
The mark [8] stands for this setting: Klebsiella pneumoniae, ATCC700603, 50% v/v mouse serum in Mueller Hinton II cation adjusted Broth, 35° C., 22 hours, Table 4, read-out: K pneumoniae 700603 Serum MIC.
[9] abbreviates: Escherichia coli, ATCC25922, 50% v/v mouse serum in Mueller Hinton II cation adjusted Broth, 35° C., 22 hours, Table 4.

By MIC is commonly meant the lowest concentration that inhibits growth of the organism. For `Cc1c(C#N)c(-c2ccc(C(C)(C)C)cc2)nc(N)c1C(=O)N[C@@H](CNS(N)(=O)=O)C(=O)N(C)[C@@H]1C(=O)N[C@@H](C)C(=O)N[C@H](C(=O)O)Cc2ccc(OC[C@H](O)CN)c(c2)-c2cc1cc(OC[C@H](O)CN)c2O` [Example 68, (8S,11S,14S)-14-[[(2S)-2-[[2-amino-6-(4-tert-butylphenyl)-5-cyano-4-methyl-pyridine-3-carbonyl]-amino]-3-(sulfamoyl-amino)propanoyl]-methyl-amino]-3,17-bis[(2R)-3-amino-2-hydroxy-propoxy]-18-hydroxy-11-methyl-10,13-dioxo-9,12-diazatricyclo-[13.3.1.12,6]icosa-1(19),2(20),3,5,15,17-hexaene-8-carboxylic acid], the MIC turned out to be 16 µM (≈ 16.5 µg/mL) in test [1] (setting [5]); 16 µM (≈ 16.5 µg/mL) in test [1] (setting [6]); 6 µM (≈ 6.19 µg/mL) in test [2] (setting [7]); 1 µM (≈ 1.03 µg/mL) in test [3] (setting [8]); 1.5 µM (≈ 1.55 µg/mL) in test [4] (setting [9]).
Take `C[C@@H]1NC(=O)[C@@H](N(C)C(=O)[C@H](CNS(N)(=O)=O)NC(=O)c2cnc(-c3ccc(C(C)(C)C)cc3)nc2)c2cc(OC[C@H](O)CN)c(O)c(c2)-c2cc(ccc2OC[C@H](O)CN)C[C@@H](C(=O)O)NC1=O` [Example 71, (8S,11S,14S)-3,17-bis[(2R)-3-amino-2-hydroxy-propoxy]-14-[[(2S)-2-[[2-(4-tert-butylphenyl)-pyrimidine-5-carbonyl]amino]-3-(sulfamoylamino)-propanoyl]-methyl-amino]-18-hydroxy-11-methyl-10,13-dioxo-9,12-diazatri-cyclo[13.3.1.12,6]icosa-1(18),2(20),3,5,15(19), 16-hexaene-8-carboxylic acid]: the MIC in test [1] (setting [5]) was determined as 8 µM (≈ 7.83 µg/mL); in test [1] (setting [6]) it was 8 µM (≈ 7.83 µg/mL); in test [2] (setting [7]), 8 µM (≈ 7.83 µg/mL); in test [3] (setting [8]), 0.5 µM (≈ 0.49 µg/mL); in test [4] (setting [9]) it was 0.25 µM (≈ 0.245 µg/mL).
As for `Cc1nc(-c2ccc(C3(C)CC3)cc2)ncc1C(=O)N[C@@H](CCN)C(=O)N(C)[C@@H]1C(=O)N[C@@H](C)C(=O)N[C@H](C(=O)O)Cc2ccc(OC[C@@H](O)CN)c(c2)-c2cc1cc(OC[C@@H](O)CN)c2O` [Example 73, (8S,11S,14S)-3,17-bis[(2S)-3-amino-2-hydroxy-propoxy]-14-[[(2S)-4-amino-2-[[4-methyl-2-[4-(1-methylcyclopropyl)-phenyl]pyrimidine-5-carbonyl]amino]-butanoyl]-methyl-amino]-18-hydroxy-11-methyl-10,13-dioxo-9,12-diazatri-cyclo-[13.3.1.12,6]icosa-1(19),2(20),3,5,15,17-hexaene-8-carboxylic acid], the MIC in test [1] (setting [5]) stood at 16 µM (≈ 14.8 µg/mL); in test [1] (setting [6]) it was 16 µM (≈ 14.8 µg/mL); in test [2] (setting [7]) it was 64 µM (≈ 59.3 µg/mL); in test [3] (setting [8]), 0.25 µM (≈ 0.232 µg/mL); in test [4] (setting [9]) it was 0.38 µM (≈ 0.352 µg/mL).
With `COc1c(OC[C@H](O)CN)cc2cc1-c1cc(ccc1OC[C@H](O)CN)C[C@@H](C(=O)O)NC(=O)[C@H](C)NC(=O)[C@H]2N(C)C(=O)[C@H](CCN)NC(=O)c1cnc(-c2ccc(C3(C)CC3)cc2)nc1C` [Example 74, (8S,11S,14S)-3,17-bis[(2R)-3-amino-2-hydroxy-propoxy]-14-[[(2S)-4-amino-2-[[4-methyl-2-[4-(1-methylcyclopropyl)-phenyl]pyrimidine-5-carbonyl]amino]-butanoyl]-methyl-amino]-18-methoxy-11-methyl-10,13-dioxo-9,12-diazatri-cyclo[13.3.1.12,6]icosa-1(18),2(20),3,5,15(19), 16-hexaene-8-carboxylic acid], the MIC amounted to 32 µM (≈ 30.1 µg/mL) in test [1] (setting [5]); 32 µM (≈ 30.1 µg/mL) in test [1] (setting [6]); 64 µM (≈ 60.2 µg/mL) in test [2] (setting [7]); 0.5 µM (≈ 0.47 µg/mL) in test [3] (setting [8]); 0.5 µM (≈ 0.47 µg/mL) in test [4] (setting [9]).
Take `COc1c(OC[C@H](O)CN)cc2cc1-c1cc(ccc1OC[C@H](O)CN)C[C@@H](C(=O)O)NC(=O)[C@H](C)NC(=O)[C@H]2N(C)C(=O)[C@H](CNS(N)(=O)=O)NC(=O)c1c(C)nc(-c2ccc(C(C)(C)C)cc2)nc1N` [Example 75, (8S,11S,14S)-14-[[(2S)-2-[[4-amino-2-(4-tert-butylphenyl)-6-methyl-pyrimidine-5-carbonyl]amino]-3-(sulfamoylamino)-propanoyl]-methyl-amino]-3,17-bis[(2R)-3-amino-2-hydroxy-propoxy]-18-methoxy-11-methyl-10,13-dioxo-9,12-diazatri-cyclo[13.3.1.12,6]icosa-1(18),2(20),3,5,15(19), 16-hexaene-8-carboxylic acid]: the minimal inhibitory concentration (MIC) was 16 µM (≈ 16.4 µg/mL) in test [1] (50% v/v mouse serum in Mueller Hinton II cation adjusted Broth, 35° C., 22 hours, Table 4, read-out: A. baumanii 17978 Serum MIC); 16 µM (≈ 16.4 µg/mL) in test [1] (50% v/v mouse serum in Mueller Hinton II cation adjusted Broth, 35° C., 22 hours, Table 5, read-out: Acinetobacter baumanii 17978 Serum MIC); 0.5 µM (≈ 0.511 µg/mL) in test [3] (50% v/v mouse serum in Mueller Hinton II cation adjusted Broth, 35° C., 22 hours, Table 4, read-out: K. pneumoniae 700603 Serum MIC); 0.75 µM (≈ 0.767 µg/mL) in test [4] (setting [7]). Further, the “P. aeruginosa 01 Serum MIC” value in test [2] (setting [7]) came out at 8 µM.
For the compound `Cc1nc(-c2ccc(C(C)(C)C)cc2)nc(N)c1C(=O)N[C@@H](CCNS(N)(=O)=O)C(=O)N(C)[C@@H]1C(=O)N[C@@H](C)C(=O)N[C@H](C(=O)O)Cc2ccc(OC[C@H](O)CN)c(c2)-c2cc1cc(OC[C@H](O)CN)c2O` [Example 76, (8S,11S,14S)-14-[[(2S)-2-[[4-amino-2-(4-tert-butylphenyl)-6-methyl-pyrimidine-5-carbonyl]amino]-4-(sulfamoylamino)-butanoyl]-methyl-amino]-3,17-bis[(2R)-3-amino-2-hydroxy-propoxy]-18-hydroxy-11-methyl-10,13-dioxo-9,12-diazatricyclo-[13.3.1.12,6]icosa-1(18),2(20),3,5,15(19), 16-hexaene-8-carboxylic acid], the MIC in test [1] (setting [5]) worked out at 24 µM (≈ 24.5 µg/mL); in test [1] (setting [6]), 24 µM (≈ 24.5 µg/mL); in test [2] (setting [7]) it was 16 µM (≈ 16.4 µg/mL); in test [3] (setting [8]), 1.5 µM (≈ 1.53 µg/mL); in test [4] (setting [9]), 2 µM (≈ 2.04 µg/mL).
With `Cc1nc(-c2ccc(C(C)(C)C)cc2)nc(C)c1C(=O)N[C@@H](CCN)C(=O)N(C)[C@@H]1C(=O)N[C@@H](C)C(=O)N[C@H](C(=O)NCC#N)Cc2ccc(O)c(c2)-c2cc1cc(OCCN)c2OCCN` [Example 633], the MIC was determined as 5 µM (≈ 4.6 µg/mL) in test [1] (Acinetobacter baumannii, ATCC17978, 50% v/v mouse serum, compounds of Table 1, Table 7, read-out: A. baumanii 17978 Serum MIC); 4 µM (≈ 3.68 µg/mL) in test [2] (50% v/v mouse serum, compounds of Table 1, Table 7); 0.063 µM (≈ 0.058 µg/mL) in test [3] (Klebsiella pneumoniae, ATCC700603, 50% v/v mouse serum, compounds of Table 1, Table 7, read-out: K. pneumoniae 700603 Serum MIC); 0.063 µM (≈ 0.058 µg/mL) in test [4] (Escherichia coli, ATCC25922, 50% v/v mouse serum, compounds of Table 1, Table 7).
